# According to patent US6558951B1, “Maturation of dendritic cells with immune response modifying compounds” (3M Innovative Properties Company, priority 1999, dated 2003):
# Key:
# Format in all cases: cell-based, human
# [1] = system: monocyte-derived dendritic cells (MO-DC); test: MO-DC cytokine and chemokine secretion (ELISA or bioassay of culture supernatants); conditions: for IFN-α: bioassay; for IFN-α / IL-6 / IL-8 / IL-12 / MCP-1 / MIP-1α / TNF-α: mean ± SEM
# Experimental: Generation of Monocyte-Derived Dendritic Cells (MO-DC). PBMC were isolated with Histopaque HybriMax-1077 density gradient (Sigma) from healthy volunteers after obtaining informed consent. CD14^+ cells were purified by positive selection using CD14^+ microbeads in conjunction with the MiniMACS system (Miltenyi Biotech, Auborn, Calif.) by following the manufacturer's instructions. Purity, as assessed by flow cytometry, was greater than 90%. […] Fresh medium containing GM-CSF and IL-4 was added every three days. MO-DC were routinely used between days 7 and 8 of culture. As a control, depleted lymphocytes were cultured in the same fashion. In Vitro MO-DC Stimulation. […] Cells were subsequently analyzed by flow cytometry for the expression of various cell surface markers, and the cell culture supernatants were analyzed for various cytokines and chemokines by ELISA. Cytokine Analysis. Cytokine levels were measured by ELISA. […] Human IL-6 kits were obtained from Biosource International (Camarillo, Calif.). Human IL-5, IL-8, MIP-1α, MCP-1 and RANTES were purchased from R&D Systems. All ELISA were run according to manufacturer's specifications. […] IFN-α and IFN-β specific antibodies were used to determine which type I IFN was present in the MO-DC supernatants. Results for all ELISAs are presented in pg/ml, whereas IFN results are presented in U/ml.
# allogeneic T cells = test: Allogeneic lymphocyte activation (primary MLR) by treated MO-DC: T cell proliferation and cytokines
# Experimental: Allogeneic Lymphocyte Activation. T-cells were isolated using T-Cell Purification Columns according to manufacturer's specifications (R&D Systems, Minneapolis, Minn). […] Dendritic cells were subsequently washed, resuspended in cRPMI and added at various concentrations (1-32×10^3 per well) to purified responder T-cells (1×10^5 per well) in 96-well flat-bottomed microtiter plates (BD Labware) in a total volume of 200 μl. […] Each well received 1 μCi [^3H]TdR and was harvested 18 hours later. Results are presented as mean CPM±SEM of triplicate wells. […] Cytokine Analysis. Cytokine levels were measured by ELISA. […] Human IL-6 kits were obtained from Biosource International (Camarillo, Calif.). Human IL-5, IL-8, MIP-1α, MCP-1 and RANTES were purchased from R&D Systems. All ELISA were run according to manufacturer's specifications. […] IFN-α and IFN-β specific antibodies were used to determine which type I IFN was present in the MO-DC supernatants. Results for all ELISAs are presented in pg/ml, whereas IFN results are presented in U/ml.
# [2] = system: monocyte-derived dendritic cells (MO-DC); test: MO-DC cell surface maturation marker expression by flow cytometry
# Experimental: Generation of Monocyte-Derived Dendritic Cells (MO-DC). […] CD14^+ cells were purified by positive selection using CD14^+ microbeads in conjunction with the MiniMACS system (Miltenyi Biotech, Auborn, Calif.) by following the manufacturer's instructions. […] Fresh medium containing GM-CSF and IL-4 was added every three days. MO-DC were routinely used between days 7 and 8 of culture. As a control, depleted lymphocytes were cultured in the same fashion. In Vitro MO-DC Stimulation. […] Cells were subsequently analyzed by flow cytometry for the expression of various cell surface markers, and the cell culture supernatants were analyzed for various cytokines and chemokines by ELISA. Cell Surface and Intracellular Flow Cytometry. […] Cells (5-10^5) were incubated for 15 minutes incubation at 4° C. with purified IgD (Becton Dickinson) to block non-specific binding, and then the cells were stained for 30 minutes with the antibodies at 4° C. in PBS containing 10% FCS and 0.1% sodium azide. After washing in PBS, the cells were analyzed using a FACScan flow cytometer and Cell Quest software (Becton Dickinson).
# [3] = system: syngeneic CD3-enriched peripheral blood T cells; test: Autologous T cell activation by treated MO-DC (anamnestic response to tetanus toxoid)
# Experimental: Autologous T Cell Activation. Autologous T cells and R-848-treated MO-DC were prepared as described for allogeneic T cell stimulation. MO-DC were cultured with R-848 [2 μg/ml] and tetanus toxoid [10 μg/ml] for 24 hours. The MO-DC were washed and cultured at graded doses with PBMC-derived CD3^+ T cells for 7 days. Cell proliferation and analysis were determined as described. Supernatants were also collected; from the same cultures prior to pulsing with [^3H]TdR and analyzed for IFN-γ and IL-5.
# Cytokine Analysis. Cytokine levels were measured by ELISA. Human TNF-α, IL-12 (p40/p70), IFNγ, IL-4 and IL-2 kits were purchased from Genzyme (Cambridge, Mass.). Human IL-6 kits were obtained from Biosource International (Camarillo, Calif.). Human IL-5, IL-8, MIP-1α, MCP-1 and RANTES were purchased from R&D Systems. All ELISA were run according to manufacturer's specifications. IFN levels were; measured by bioassay (40). IFN-α and IFN-β specific antibodies were used to determine which type I IFN was present in the MO-DC supernatants. Results for all ELISAs are presented in pg/ml, whereas IFN results are presented in U/ml.
# [4] = 0.1 μg/ml, 24 hours, MO-DC supernatant
# [5] = 0.4 μg/ml, 24 hours, MO-DC supernatant
# [6] = 2.0 μg/ml, 24 hours, MO-DC supernatant
# [7] = 8.0 μg/ml, 24 hours, MO-DC supernatant
# [8] = treatment time 1 hr, 2 μg/ml R-848 or 1 μg/ml LPS
# [9] = treatment time 6 hr, 2 μg/ml R-848 or 1 μg/ml LPS
# [10] = treatment time 24 hr, 2 μg/ml R-848 or 1 μg/ml LPS
# [11] = MO-DC treated with 2 and 8 μg/ml, MLR supernatants, 96 hours
# [12] = 0.1 μg/ml, 24 hours, vs vehicle
# [13] = MO-DC treated with 2 μg/ml and 10 μg/ml tetanus toxoid 24 hours, 7 days co-culture
compound,measurement,setting,value
"CCOCc1nc2c(N)nc3ccccc3c2n1CC(C)(C)O [R-848, 4-amino-2-ethoxymethyl-α,α-dimethyl-1H-imidazo [4,5-c]quinoline-1-ethanol]",IFN-α,[1]; [4],8 ± 3 U/ml
same,IL-6,[1]; [4],20 ± 12 pg/mL
same,IL-8,[1]; [4],425 ± 132 pg/mL
same,IL-12,[1]; [4],70 ± 21 pg/mL
same,MCP-1,[1]; [4],3603 ± 2158 pg/mL
same,MIP-1α,[1]; [4],57 ± 57 pg/mL
same,TNF-α,[1]; [4],6 ± 3 pg/mL
same,IFN-α,[1]; [5],8 ± 3 U/ml
same,IL-6,[1]; [5],399 ± 208 pg/mL
same,IL-8,[1]; [5],5125 ± 2430 pg/mL
same,IL-12,[1]; [5],106 ± 27 pg/mL
same,MCP-1,[1]; [5],4864 ± 2213 pg/mL
same,MIP-1α,[1]; [5],511 ± 314 pg/mL
same,TNF-α,[1]; [5],14 ± 4 pg/mL
same,stimulation time for maximal IL-12 secretion,[1]; 2 μg/ml R-848 or 1 μg/ml LPS,between six and twenty four hours
same,stimulation time for maximal TNF-α secretion,[1]; 2 μg/ml R-848 or 1 μg/ml LPS,between one and six hours
same,IFN-α,[1]; [6],27 ± 7 U/ml
same,IL-6,[1]; [6],6729 ± 1888 pg/mL
same,IL-8,[1]; [6],50092 ± 10385 pg/mL
same,IL-12,[1]; [6],15984 ± 3860 pg/mL
same,MCP-1,[1]; [6],12941 ± 5802 pg/mL
same,MIP-1α,[1]; [6],15412 ± 5244 pg/mL
same,TNF-α,[1]; [6],1540 ± 371 pg/mL
same,IFN-α,[1]; [7],41 ± 12 U/ml
same,IL-6,[1]; [7],9690 ± 1269 pg/mL
same,IL-8,[1]; [7],66988 ± 11863 pg/mL
same,IL-12,[1]; [7],19640 ± 3966 pg/mL
same,MCP-1,[1]; [7],16249 ± 7661 pg/mL
same,MIP-1α,[1]; [7],25956 ± 5782 pg/mL
same,TNF-α,[1]; [7],2208 ± 240 pg/mL
same,inhibition of induced IFN bioactivity by neutralizing IFN-α,"[1]; MO-DC supernatants, IFN bioassay",greater than 95%
same,IL-12,[1]; [8],65 ± 18 pg/mL
same,TNF-α,[1]; [8],32 ± 10 pg/mL
same,IL-12,[1]; [9],4446 ± 2438 pg/mL
same,TNF-α,[1]; [9],1053 ± 707 pg/mL
same,IL-12,[1]; [10],13153 ± 5484 pg/mL
same,TNF-α,[1]; [10],335 ± 201 pg/mL
same,allogeneic T cell proliferation vs untreated MO-DC,allogeneic T cells; MO-DC treated for 6 hours,significantly enhanced
same,allogeneic T cell proliferation vs untreated MO-DC,allogeneic T cells; MO-DC treated for less than 6 hours,not significantly increased
same,enhancement of IFN-γ production vs untreated MO-DC cultures,allogeneic T cells; [11],2- to 3 fold
same,enhancement of IL-2 production vs untreated MO-DC cultures,allogeneic T cells; [11],2- to 3 fold
same,enhancement of IL-5 production vs untreated MO-DC cultures,allogeneic T cells; [11],2- to 3 fold
same,"IL-2, IL-5 or IFN-γ production by T cells","allogeneic T cells; T cells cultured in the presence of compound, without added MO-DC",do not produce
same,CD83 cell surface expression,[2]; [12],no increase
same,CD86 cell surface expression,[2]; [12],no increase
same,increase in CD40 expression over vehicle treated MO-DC,"[2]; 2 μg/ml, 24 hours",2 fold
same,increase in CD80 expression over vehicle treated MO-DC,"[2]; 2 μg/ml, 24 hours",2 fold
same,maximal average increase in CD80 expression (MFI),"[2]; 2 μg/ml, 24 hours",3- to 4 fold
same,maximal average increase in CD86 expression (MFI),"[2]; 2 μg/ml, 24 hours",3- to 4 fold
same,decrease in CD1a expression,"[2]; 2 μg/ml, 24 hours, vs vehicle",not statistically significant
same,increase in cell surface HLA-DR expression,"[2]; 2 μg/ml, 24 hours, vs vehicle",not quantitatively significant
same,culture time giving maximal DC maturation marker expression,"[2]; 2 μg/ml, 24, 48, 72 and 96 hour stimulation examined",24 h
same,CD86 expression,"[2]; 0.4, 2 and 8 μg/ml, 24 hours, vs vehicle",Enhanced
same,cell surface expression of CD83,"[2]; 2 and 8 μg/ml, 24 hours, vs vehicle",Enhanced
same,CD83 expression,"[2]; pulsed 6 hours, stained immediately, 2 μg/ml R-848 or 1 μg/ml LPS",significant increase
same,"CD40, CD80, CD86 and HLA-DR expression","[2]; pulsed 6 hours, stained immediately, 2 μg/ml R-848 or 1 μg/ml LPS, vs medium control",not statistically significant
same,CD83 and CD40 expression,"[2]; pulsed 6 hours, washed, re-cultured 18 hours, 2 μg/ml R-848 or 1 μg/ml LPS",significant increase
same,"expression of CD83, CD80, CD86, CD40 or HLA-DR","[2]; pulsed one hour with 2 μg/ml R-848 or 1 μg/ml LPS, then stained",did not show enhanced expression
same,"expression of CD83, CD80, CD86, CD40 or HLA-DR","[2]; pulsed one hour, washed, re-cultured 23 hours, 2 μg/ml R-848 or 1 μg/ml LPS",did not show enhanced expression
same,IFN-γ production vs MO-DC cultured only with tetanus toxoid antigen,[3]; [13],4- to 11 fold
same,increase of syngeneic T cell proliferation vs MO-DC not treated with R-848,[3]; [13],2to 3 fold
same,IL-5 in culture supernatants,"[3]; MO-DC treated with 2 μg/ml and 10 μg/ml tetanus toxoid, autologous MO-DC/T cell system",not detected
